Reference: patent publication US20230085307A1, “PYRIDAZINONE COMPOUND AND HERBICIDE” (NISSAN CHEMICAL CORPORATION, priority 2019, published 2023)

What was measured:
chickweed = assay: Test Example 5: herbicidal effect by foliage application, plastic box (Table 20, symbol P); assay type: in vivo, common chickweed (Stellaria media)
How it was run: (§1)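 Post-emergence foliar test in sterilized diluvial soil. Compound applied as water-diluted emulsion at a predetermined rate to 14-day-old plants; evaluation at three weeks.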

rice flat sedge = assay: Test Example 3: herbicidal effect by foliage application, Wagner pot (Table 18, symbol E); assay type: in vivo, rice flat sedge (Cyperus iria)
How it was run: (§2)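 Plants were sown in alluvial soil held under 0.1–0.5 cm standing water and grown 14 days in a greenhouse at 25–30 °C. An emulsifiable formulation, water-diluted to the set dose, was then sprayed onto the foliage, and effects were scored three weeks later using previously defined criteria.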

wild oat = assay: Test Example 5: herbicidal effect by foliage application, plastic box (Table 20, symbol I); assay type: in vivo, wild oat (Avena fatua)
How it was run: as §1

false cleavers = assay: Test Example 5: herbicidal effect by foliage application, plastic box (Table 20, symbol Q); assay type: in vivo, false cleavers (Galium spurium)
How it was run: as §1

blackgrass = assay: Test Example 5: herbicidal effect by foliage application, plastic box (Table 20, symbol J); assay type: in vivo, blackgrass (Alopecurus myosuroides)
How it was run: as §1

Chinese sprangletop = assay: Test Example 3: herbicidal effect by foliage application, Wagner pot (Table 18, symbol D); assay type: in vivo, chinese sprangletop (Leptochloa chinensis)
How it was run: as §2

barnyard grass [1] = assay: Test Example 3: herbicidal effect by foliage application, Wagner pot (Table 18, symbol H); assay type: in vivo, barnyard grass (Echinochloa crus-galli)
How it was run: as §2

barnyard grass [2] = assay: Test Example 5: herbicidal effect by foliage application, plastic box (Table 20, symbol H); assay type: in vivo, barnyard grass (Echinochloa crus-galli)
How it was run: as §1

persian speedwell = assay: Test Example 5: herbicidal effect by foliage application, plastic box (Table 20, symbol R); assay type: in vivo, Persian speedwell (Veronica persica)
How it was run: as §1

lambsquarters = assay: Test Example 5: herbicidal effect by foliage application, plastic box (Table 20, symbol O); assay type: in vivo, lambsquarters (Chenopodium album)
How it was run: as §1

Italian ryegrass = assay: Test Example 5: herbicidal effect by foliage application, plastic box (Table 20, symbol K); assay type: in vivo, Italian ryegrass (Lolium multiflorum)
How it was run: as §1

green foxtail = assay: Test Example 5: herbicidal effect by foliage application, plastic box (Table 20, symbol G); assay type: in vivo, green foxtail (Setaria viridis)
How it was run: as §1

velvetleaf = assay: Test Example 5: herbicidal effect by foliage application, plastic box (Table 20, symbol M); assay type: in vivo, velvetleaf (Abutilon theophrasti)
How it was run: as §1

redroot pigweed = assay: Test Example 5: herbicidal effect by foliage application, plastic box (Table 20, symbol N); assay type: in vivo, redroot pigweed (Amaranthus retroflexus)
How it was run: as §1

windgrass = assay: Test Example 5: herbicidal effect by foliage application, plastic box (Table 20, symbol L); assay type: in vivo, windgrass (Apera spica-venti)
How it was run: as §1

southern crabgrass = assay: Test Example 5: herbicidal effect by foliage application, plastic box (Table 20, symbol F); assay type: in vivo, southern crabgrass (Digitaria ciliaris)
How it was run: as §1

[3] = foliage application, AAH 197 g/ha, three weeks after application
[4] = amount of applied herbicide 320 g/ha, foliage application after 14-day growth, evaluated three weeks after application

## Cc1nn(C)c(=O)c(-c2c(-c3cc4c(cc3Cl)OCCO4)sc3ccccc23)c1O [1-095]
chickweed; [3]
  P: chickweed, herbicidal effect: 3 (Herbicidal rate of 40% or more and less than 70%)
Rice flat sedge; 197 g/ha
  herbicidal effect on E (rice flat sedge), rating 0-5: 1 (Herbicidal rate of 5% or more and less than 20%)
Wild oat; [3]
  I: wild oat, herbicidal effect: 0 (Herbicidal rate of 5% or less (almost no effect))
False cleavers; [3]
  Q: false cleavers, herbicidal effect: 3 (Herbicidal rate of 40% or more and less than 70%)
blackgrass; [3]
  J: blackgrass, herbicidal effect: 0 (Herbicidal rate of 5% or less (almost no effect))
Chinese sprangletop; 197 g/ha
  herbicidal effect on D (Chinese sprangletop), rating 0-5: 0 (Herbicidal rate of 5% or less (almost no effect))
Barnyard grass [1]; 197 g/ha
  herbicidal effect on H (barnyard grass), rating 0-5: 4 (Herbicidal rate of 70% or more and less than 90%)
Barnyard grass [2]; [3]
  H: barnyard grass, herbicidal effect: 0 (Herbicidal rate of 5% or less (almost no effect))
Persian speedwell; [3]
  R: persian speedwell, herbicidal effect: 4 (Herbicidal rate of 70% or more and less than 90%)
lambsquarters; [3]
  O: lambsquarters, herbicidal effect: 0 (Herbicidal rate of 5% or less (almost no effect))
Italian ryegrass; [3]
  K: Italian ryegrass, herbicidal effect: 0 (Herbicidal rate of 5% or less (almost no effect))
Green foxtail; [3]
  G: green foxtail, herbicidal effect: 0 (Herbicidal rate of 5% or less (almost no effect))
velvetleaf; [3]
  M: velvetleaf, herbicidal effect: 0 (Herbicidal rate of 5% or less (almost no effect))
Redroot pigweed; [3]
  N: redroot pigweed, herbicidal effect: 0 (Herbicidal rate of 5% or less (almost no effect))
windgrass; [3]
  L: windgrass, herbicidal effect: 0 (Herbicidal rate of 5% or less (almost no effect))
Southern crabgrass; [3]
  F: southern crabgrass, herbicidal effect: 0 (Herbicidal rate of 5% or less (almost no effect))

## CCSc1ccccc1-c1sc2c(C)cccc2c1-c1c(O)c(C)nn(C)c1=O [4-120]
chickweed; [4]
  Herbicidal effect by foliage application, P: chickweed: 5 (Herbicidal rate of 90% or more (almost completely withered))
Rice flat sedge; 320 g/ha
  herbicidal effect on rice flat sedge (E): 2 (Herbicidal rate of 20% or more and less than 40%)
Wild oat; [4]
  Herbicidal effect by foliage application, I: wild oat: 0 (Herbicidal rate of 5% or less (almost no effect))
False cleavers; [4]
  Herbicidal effect by foliage application, Q: false cleavers: 0 (Herbicidal rate of 5% or less (almost no effect))
blackgrass; [4]
  Herbicidal effect by foliage application, J: blackgrass: 0 (Herbicidal rate of 5% or less (almost no effect))
Chinese sprangletop; 320 g/ha
  herbicidal effect on Chinese sprangletop (D): 3 (Herbicidal rate of 40% or more and less than 70%)
Barnyard grass [1]; 320 g/ha
  herbicidal effect on barnyard grass (H): 2 (Herbicidal rate of 20% or more and less than 40%)
Barnyard grass [2]; [4]
  Herbicidal effect by foliage application, H: barnyard grass: 0 (Herbicidal rate of 5% or less (almost no effect))
Persian speedwell; [4]
  Herbicidal effect by foliage application, R: persian speedwell: 5 (Herbicidal rate of 90% or more (almost completely withered))
lambsquarters; [4]
  Herbicidal effect by foliage application, O: lambsquarters: 0 (Herbicidal rate of 5% or less (almost no effect))
Italian ryegrass; [4]
  Herbicidal effect by foliage application, K: Italian ryegrass: 0 (Herbicidal rate of 5% or less (almost no effect))
Green foxtail; [4]
  Herbicidal effect by foliage application, G: green foxtail: 0 (Herbicidal rate of 5% or less (almost no effect))
velvetleaf; [4]
  Herbicidal effect by foliage application, M: velvetleaf: 0 (Herbicidal rate of 5% or less (almost no effect))
Redroot pigweed; [4]
  Herbicidal effect by foliage application, N: redroot pigweed: 0 (Herbicidal rate of 5% or less (almost no effect))
windgrass; [4]
  Herbicidal effect by foliage application, L: windgrass: 0 (Herbicidal rate of 5% or less (almost no effect))
Southern crabgrass; [4]
  Herbicidal effect by foliage application, F: southern crabgrass: 0 (Herbicidal rate of 5% or less (almost no effect))
